Test results: PubChem BioAssay (NCI)
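Grown in 96-well plates, cells were treated for 48 hours with each compound at five concentrations. Insufficient inhibition: endpoint recorded as highest concentration tested. At the GI50, growth is halved. TGI is the concentration that stops growth completely.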

Columns and labels:
Experiment in all cases: inhibition of tumour cell growth, NCI panel, 48 h
MOLT-4 leukemia = tested on: MOLT-4 leukemia
NCI-H226 lung = tested on: NCI-H226 lung
SW-620 colon = tested on: SW-620 colon
TK-10 renal = tested on: TK-10 renal
OVCAR-4 ovarian = tested on: OVCAR-4 ovarian
UO-31 renal = tested on: UO-31 renal
HCT-116 colon = tested on: HCT-116 colon
IGROV1 ovarian = tested on: IGROV1 ovarian
OVCAR-5 ovarian = tested on: OVCAR-5 ovarian
SK-OV-3 ovarian = tested on: SK-OV-3 ovarian

CCCCCCCCCCCC[n+]1ccccc1 (tested in a mixture with another compound)
GI50 (MOLT-4 leukemia): 1.34 µM | TGI (MOLT-4 leukemia): 4.78 µM | GI50 (NCI-H226 lung): 1.72 µM | TGI (NCI-H226 lung): 10.4 µM | GI50 (SW-620 colon): 1.57 µM | TGI (SW-620 colon): 10.5 µM | GI50 (TK-10 renal): 0.427 µM | TGI (TK-10 renal): 1.86 µM | GI50 (OVCAR-4 ovarian): 0.683 µM | TGI (OVCAR-4 ovarian): 12.4 µM | GI50 (UO-31 renal): 2.24 µM | TGI (UO-31 renal): 14.8 µM | GI50 (HCT-116 colon): 0.548 µM | TGI (HCT-116 colon): 2.62 µM | GI50 (IGROV1 ovarian): 0.519 µM | TGI (IGROV1 ovarian): 2.28 µM | GI50 (OVCAR-5 ovarian): 1.03 µM | TGI (OVCAR-5 ovarian): 5.85 µM | GI50 (SK-OV-3 ovarian): 1.16 µM | TGI (SK-OV-3 ovarian): 3.74 µM

O=C1C(Cl)=C(Nc2ccccc2)C(=O)c2ccccc21
GI50 (MOLT-4 leukemia): 3.34 µM | TGI (MOLT-4 leukemia): > 100 µM | GI50 (NCI-H226 lung): 2.18 µM | TGI (NCI-H226 lung): 6.3 µM | GI50 (SW-620 colon): 1.09 µM | TGI (SW-620 colon): 2.92 µM | GI50 (TK-10 renal): 11 µM | TGI (TK-10 renal): > 100 µM | GI50 (OVCAR-4 ovarian): 1.63 µM | TGI (OVCAR-4 ovarian): 3 µM | GI50 (UO-31 renal): 1.41 µM | TGI (UO-31 renal): 2.97 µM | GI50 (HCT-116 colon): 1.83 µM | TGI (HCT-116 colon): 3.53 µM | GI50 (IGROV1 ovarian): 1.75 µM | TGI (IGROV1 ovarian): 3.27 µM | GI50 (OVCAR-5 ovarian): 1.94 µM | TGI (OVCAR-5 ovarian): 3.65 µM | GI50 (SK-OV-3 ovarian): 5.43 µM | TGI (SK-OV-3 ovarian): 18.7 µM

CN(C)Cc1c[nH]c2c(NCCN)c3c(c(NCCN)c12)C(=O)c1ccccc1C3=O
GI50 (MOLT-4 leukemia): 1.7 µM | TGI (MOLT-4 leukemia): > 35.7 µM | GI50 (NCI-H226 lung): 1.56 µM | TGI (NCI-H226 lung): 5.35 µM | GI50 (SW-620 colon): 2.35 µM | TGI (SW-620 colon): 7.87 µM | GI50 (TK-10 renal): 3.25 µM | TGI (TK-10 renal): 9.49 µM | GI50 (OVCAR-4 ovarian): 8.07 µM | TGI (OVCAR-4 ovarian): 29.6 µM | GI50 (UO-31 renal): 8.58 µM | TGI (UO-31 renal): 26 µM | GI50 (HCT-116 colon): 0.625 µM | TGI (HCT-116 colon): 5.29 µM | GI50 (IGROV1 ovarian): 2.1 µM | TGI (IGROV1 ovarian): 10.5 µM | GI50 (OVCAR-5 ovarian): 5.68 µM | TGI (OVCAR-5 ovarian): 25.1 µM | GI50 (SK-OV-3 ovarian): 8.67 µM | TGI (SK-OV-3 ovarian): 24.1 µM

COc1c(Br)cc(Br)c(OC)c1-c1[nH]c(Br)c(Br)c1Br
TGI (MOLT-4 leukemia): 21.8 µM | TGI (NCI-H226 lung): 25.8 µM | TGI (SW-620 colon): 21.7 µM | TGI (TK-10 renal): 24.7 µM | TGI (OVCAR-4 ovarian): 16.3 µM | TGI (UO-31 renal): 8.73 µM | TGI (HCT-116 colon): 12.3 µM | TGI (IGROV1 ovarian): 20.6 µM | TGI (OVCAR-5 ovarian): 29 µM | TGI (SK-OV-3 ovarian): 28.1 µM

C=CCO/N=C/c1cc(NC(=S)c2ccoc2C)ccc1Cl
TGI (MOLT-4 leukemia): 29.4 µM | TGI (NCI-H226 lung): 41.3 µM | TGI (SW-620 colon): > 100 µM | TGI (TK-10 renal): 42.2 µM | TGI (OVCAR-4 ovarian): 20.6 µM | TGI (UO-31 renal): 19.4 µM | TGI (HCT-116 colon): > 100 µM | TGI (IGROV1 ovarian): 32.2 µM | TGI (OVCAR-5 ovarian): 33.8 µM | TGI (SK-OV-3 ovarian): 36.2 µM

C=C1CC2(OC1=O)C(=O)N(CCCN1C(=O)C3(CC(=C)C(=O)O3)c3ccccc31)c1ccccc12 (stereo not given)
GI50 (MOLT-4 leukemia): 0.419 µM | TGI (MOLT-4 leukemia): 1.93 µM | GI50 (NCI-H226 lung): 2.01 µM | TGI (NCI-H226 lung): 6.64 µM | GI50 (SW-620 colon): 0.594 µM | TGI (SW-620 colon): 2.08 µM | GI50 (TK-10 renal): 1.54 µM | TGI (TK-10 renal): 2.98 µM | GI50 (OVCAR-4 ovarian): 1.52 µM | TGI (OVCAR-4 ovarian): 3.14 µM | GI50 (UO-31 renal): 1.53 µM | TGI (UO-31 renal): 2.97 µM | GI50 (HCT-116 colon): 1.84 µM | TGI (HCT-116 colon): 3.75 µM | GI50 (IGROV1 ovarian): 1.32 µM | TGI (IGROV1 ovarian): 2.68 µM | GI50 (OVCAR-5 ovarian): 2.07 µM | TGI (OVCAR-5 ovarian): 4.55 µM | GI50 (SK-OV-3 ovarian): 11.4 µM | TGI (SK-OV-3 ovarian): 23.7 µM

Cc1ncc(C(=O)Nc2ccc(CN3CCN(C)CC3)c(C(F)(F)F)c2)cc1C#Cc1cnc(NC2CC2)c2ncccc12
GI50 (MOLT-4 leukemia): 0.519 µM | TGI (MOLT-4 leukemia): 1.17 µM | GI50 (NCI-H226 lung): 2.1 µM | TGI (NCI-H226 lung): 6.46 µM | GI50 (SW-620 colon): 0.714 µM | TGI (SW-620 colon): 1.33 µM | GI50 (TK-10 renal): 0.78 µM | TGI (TK-10 renal): 1.31 µM | GI50 (OVCAR-4 ovarian): 1.49 µM | TGI (OVCAR-4 ovarian): 3.27 µM | GI50 (UO-31 renal): 0.675 µM | TGI (UO-31 renal): 1.19 µM | GI50 (HCT-116 colon): 0.578 µM | TGI (HCT-116 colon): 1.07 µM | GI50 (IGROV1 ovarian): 0.709 µM | TGI (IGROV1 ovarian): 1.51 µM | GI50 (OVCAR-5 ovarian): 0.668 µM | TGI (OVCAR-5 ovarian): 1.32 µM | GI50 (SK-OV-3 ovarian): 3.39 µM | TGI (SK-OV-3 ovarian): 7.66 µM
